Source: patent US20250302832A1, “PYRAZINE DERIVATIVES AND USES THEREOF” (FOGHORN THERAPEUTICS INC., priority 2022, published 2025)

What was measured:
[1] = molecular target: T1, HiBit-BRM fusion protein (Homo sapiens, UniProt P51531); assay: HiBiT-BRM cell-based degradation assay (Nano-Glo HiBiT lytic detection, 24 h); details: HeLa cell line expressing HiBiT-BRM; for DC50: read-out: BRM HiBit Degradation IC50
T1 construct: expressed in transfected cells
Summary of the method: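 Stable HeLa HiBiT-BRM cells treated 24 h with compounds (10-point 3-fold dilutions, 30 μM final top dose, duplicate). HiBiT levels read by Nano-Glo lytic luminescence; % degradation normalised to DMSO (high control) and 2 μM reference BRM/BRG1 degrader (low control).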

[2] = molecular target: T2, HiBit-BRG1 fusion protein (Homo sapiens, UniProt P51532); assay: HiBiT-BRG1 cell-based degradation assay (Nano-Glo HiBiT lytic detection, 24 h); details: HeLa cell line expressing HiBit-BRG1 and LgBit; for Dmax: read-out: BRG1 HiBit Degradation Maximum (%); for DC50: read-out: BRMG1 HiBit Degradation IC50
T2 construct: expressed in transfected cells
Summary of the method: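 HeLa cells stably expressing HiBiT-BRG1 and LgBiT, 5000 per well, compound-treated 24 h, equilibrated 15 min at room temperature, then lysed with LgBiT-containing Nano-Glo HiBiT lytic reagent and luminescence read. % degradation normalised between DMSO (high control) and 2 μM reference BRM/BRG1 degrader (low control).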

T1 sequence (P51531 whole entry, the tested form may be a part): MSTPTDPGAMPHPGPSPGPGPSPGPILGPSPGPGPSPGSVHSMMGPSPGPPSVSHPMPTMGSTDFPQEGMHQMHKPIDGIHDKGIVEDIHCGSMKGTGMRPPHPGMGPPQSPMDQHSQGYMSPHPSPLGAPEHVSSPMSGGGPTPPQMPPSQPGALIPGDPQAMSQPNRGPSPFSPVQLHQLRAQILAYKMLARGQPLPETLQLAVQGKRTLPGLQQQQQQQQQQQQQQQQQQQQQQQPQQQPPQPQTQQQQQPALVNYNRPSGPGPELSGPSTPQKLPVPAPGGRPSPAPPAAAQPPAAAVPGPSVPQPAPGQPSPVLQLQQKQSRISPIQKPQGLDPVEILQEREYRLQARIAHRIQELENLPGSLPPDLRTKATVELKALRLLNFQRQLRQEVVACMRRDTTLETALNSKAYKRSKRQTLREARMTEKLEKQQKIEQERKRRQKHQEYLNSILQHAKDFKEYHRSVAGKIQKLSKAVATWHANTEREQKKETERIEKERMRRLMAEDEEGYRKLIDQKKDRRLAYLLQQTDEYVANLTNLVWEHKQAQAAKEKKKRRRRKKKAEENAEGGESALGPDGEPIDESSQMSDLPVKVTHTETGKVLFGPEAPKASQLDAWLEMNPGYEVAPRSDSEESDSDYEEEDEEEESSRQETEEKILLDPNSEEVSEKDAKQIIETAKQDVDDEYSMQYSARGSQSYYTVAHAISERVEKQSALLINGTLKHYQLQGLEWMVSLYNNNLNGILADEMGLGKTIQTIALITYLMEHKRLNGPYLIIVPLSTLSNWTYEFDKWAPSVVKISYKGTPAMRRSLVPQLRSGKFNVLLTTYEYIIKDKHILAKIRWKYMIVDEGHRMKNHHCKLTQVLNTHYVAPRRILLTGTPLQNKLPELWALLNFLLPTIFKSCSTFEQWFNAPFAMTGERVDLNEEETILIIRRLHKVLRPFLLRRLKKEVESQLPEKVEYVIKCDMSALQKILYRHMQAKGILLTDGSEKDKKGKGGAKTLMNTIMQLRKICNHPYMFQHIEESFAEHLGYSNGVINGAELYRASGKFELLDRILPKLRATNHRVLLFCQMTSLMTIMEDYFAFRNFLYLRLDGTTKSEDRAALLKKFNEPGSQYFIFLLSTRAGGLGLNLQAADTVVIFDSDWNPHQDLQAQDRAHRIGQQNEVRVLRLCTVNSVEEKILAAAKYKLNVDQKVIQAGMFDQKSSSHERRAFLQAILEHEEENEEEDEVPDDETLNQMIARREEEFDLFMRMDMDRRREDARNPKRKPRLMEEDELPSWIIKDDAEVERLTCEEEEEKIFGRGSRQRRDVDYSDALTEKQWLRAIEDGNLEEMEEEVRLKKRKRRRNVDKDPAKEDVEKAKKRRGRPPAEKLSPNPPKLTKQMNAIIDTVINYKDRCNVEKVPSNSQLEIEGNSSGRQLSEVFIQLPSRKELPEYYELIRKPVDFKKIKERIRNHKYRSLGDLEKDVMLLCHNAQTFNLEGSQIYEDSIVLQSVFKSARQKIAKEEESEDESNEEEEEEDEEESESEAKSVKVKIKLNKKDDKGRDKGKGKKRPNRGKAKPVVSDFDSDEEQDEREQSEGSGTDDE
T2 sequence (P51532 whole entry, the tested form may be a part): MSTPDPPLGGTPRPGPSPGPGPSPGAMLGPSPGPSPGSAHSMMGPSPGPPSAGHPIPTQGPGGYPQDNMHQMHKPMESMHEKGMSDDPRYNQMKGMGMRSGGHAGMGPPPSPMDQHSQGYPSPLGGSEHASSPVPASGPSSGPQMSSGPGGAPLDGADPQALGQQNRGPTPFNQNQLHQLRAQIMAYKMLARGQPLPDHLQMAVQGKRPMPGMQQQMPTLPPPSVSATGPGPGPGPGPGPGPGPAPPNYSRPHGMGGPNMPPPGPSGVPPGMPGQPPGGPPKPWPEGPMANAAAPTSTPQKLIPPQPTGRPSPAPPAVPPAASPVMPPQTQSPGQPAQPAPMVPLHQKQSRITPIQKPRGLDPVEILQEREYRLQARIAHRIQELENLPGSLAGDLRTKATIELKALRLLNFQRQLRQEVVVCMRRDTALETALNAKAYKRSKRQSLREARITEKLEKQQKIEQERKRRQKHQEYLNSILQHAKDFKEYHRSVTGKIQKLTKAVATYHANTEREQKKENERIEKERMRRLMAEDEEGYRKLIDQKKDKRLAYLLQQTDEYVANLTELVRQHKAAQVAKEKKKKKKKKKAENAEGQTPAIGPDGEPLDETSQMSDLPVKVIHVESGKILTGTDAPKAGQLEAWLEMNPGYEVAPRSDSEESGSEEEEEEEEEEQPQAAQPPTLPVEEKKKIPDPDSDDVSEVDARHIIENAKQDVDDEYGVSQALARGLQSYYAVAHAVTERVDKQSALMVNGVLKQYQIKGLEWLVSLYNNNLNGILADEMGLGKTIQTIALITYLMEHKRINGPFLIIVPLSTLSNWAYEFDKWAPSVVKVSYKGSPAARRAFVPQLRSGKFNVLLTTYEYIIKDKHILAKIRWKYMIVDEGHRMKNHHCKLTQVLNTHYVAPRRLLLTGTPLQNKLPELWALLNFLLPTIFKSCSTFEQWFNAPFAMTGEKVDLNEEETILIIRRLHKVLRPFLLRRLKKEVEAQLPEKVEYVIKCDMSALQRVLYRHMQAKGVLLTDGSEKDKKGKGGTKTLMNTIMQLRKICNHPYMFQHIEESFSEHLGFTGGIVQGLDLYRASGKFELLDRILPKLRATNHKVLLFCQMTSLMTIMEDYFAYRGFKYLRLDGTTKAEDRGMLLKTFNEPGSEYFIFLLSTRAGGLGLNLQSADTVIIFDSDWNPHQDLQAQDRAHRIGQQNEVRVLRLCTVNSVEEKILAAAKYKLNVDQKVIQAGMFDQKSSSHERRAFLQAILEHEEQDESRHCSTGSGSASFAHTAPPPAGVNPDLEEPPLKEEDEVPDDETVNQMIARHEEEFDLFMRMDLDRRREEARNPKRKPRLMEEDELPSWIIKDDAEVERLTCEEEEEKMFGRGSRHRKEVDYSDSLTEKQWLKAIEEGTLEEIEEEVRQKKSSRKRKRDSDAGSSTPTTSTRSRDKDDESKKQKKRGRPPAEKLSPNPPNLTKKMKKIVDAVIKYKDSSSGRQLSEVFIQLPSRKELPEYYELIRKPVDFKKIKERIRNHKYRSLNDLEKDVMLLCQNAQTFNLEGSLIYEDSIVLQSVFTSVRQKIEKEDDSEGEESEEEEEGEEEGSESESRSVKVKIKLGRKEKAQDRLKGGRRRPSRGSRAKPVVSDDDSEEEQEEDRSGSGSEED

## Cc1ncsc1-c1ccc([C@H](C)NC(=O)[C@@H]2C[C@@H](O)CN2C(=O)[C@@H](c2cc(N3CC4(CC(c5cc6nnc(-c7ccccc7O)cc6n5C5(C)CC5)C4)C3)no2)C(C)C)cc1 [Compound 66, (2S,4R)-4-hydroxy-1-((R)-2-(3-(6-(3-(2-hydroxyphenyl)-5-(1-methylcyclopropyl)-5H-pyrrolo[3,2-c]pyridazin-6-yl)-2-azaspiro[3.3]heptan-2-yl)isoxazol-5-yl)-3-methylbutanoyl)-N-((S)-1-(4-(4-methylthiazol-5-yl)phenyl)ethyl)pyrrolidine-2-carboxamide]
[1]
  BRM HiBit Degradation Maximum (%): A (“A” indicates maximum degradation ≥75%)
  DC50: < 10 nM
[2]
  Dmax: > 50%
  DC50: > 10 nM

## Cc1ncsc1-c1ccc([C@H](C)NC(=O)[C@@H]2C[C@@H](O)CN2C(=O)[C@@H](c2cc(-c3cnc(N4CC[C@@H](c5cc6nnc(-c7ccccc7O)cc6n5C56CC(C5)C6)C4)nc3)no2)C(C)C)cc1 [Compound 94, (2S,4R)-1-((R)-2-(3-(2-((R)-3-(5-(bicyclo[1.1.1]pentan-1-yl)-3-(2-hydroxyphenyl)-5H-pyrrolo[3,2-c]pyridazin-6-yl)pyrrolidin-1-yl)pyrimidin-5-yl)isoxazol-5-yl)-3-methylbutanoyl)-4-hydroxy-N-((S)-1-(4-(4-methylthiazol-5-yl)phenyl)ethyl)pyrrolidine-2-carboxamide]
[1]
  BRM HiBit Degradation Maximum (%): A (“A” indicates maximum degradation ≥75%)
  DC50: < 10 nM
[2]
  Dmax: < 50%

## Cc1ncsc1-c1ccc([C@H](C)NC(=O)[C@@H]2C[C@@H](O)CN2C(=O)[C@@H](c2cc(-c3ccnc(N4CC[C@@H](c5cc6nnc(-c7ccccc7O)cc6n5C5CC5)C4)c3)no2)C(C)C)cc1 [Compound 82, (2S,4R)-1-[(2R)-2-(3-{2-[(3R)-3-[5-cyclopropyl-3-(2-hydroxyphenyl)pyrrolo [3,2-c]pyridazin-6-yl]pyrrolidin-1-yl]pyridin-4-yl}-1,2-oxazol-5-yl)-3-methylbutanoyl]-4-hydroxy-N-[(1S)-1-[4-(4-methyl-1,3-thiazol-5-yl)phenyl]ethyl]pyrrolidine-2-carboxamide]
[1]
  BRM HiBit Degradation Maximum (%): A (“A” indicates maximum degradation ≥75%)
  DC50: < 10 nM
[2]
  Dmax: > 50%
  DC50: > 10 nM
